The source of these data is patent US8637525B2, “Compounds for the reduction of beta-amyloid production” (Bristol-Myers Squibb Company, priority 2009, dated 2014).

Counter-ions that a name gives are not always drawn.

The test system of the first assay is Aβ1-42 production. Nature of the assay: Cellular assay for inhibition of Aβ1-42 production (H4 APP751 SWE clone 8.20). The format is cell-based. To be noted: 19 h, H4 APP751 SWE clone 8.20 cells, 19 h incubation; class symbols; read-out: Activity Rating (Aβ42 cellular IC50). An outline of the steps: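 Compound-treated cells were incubated 19 h at 37 °C in 5% CO2. Aβ42 in the cell plate was detected overnight at 4 °C with an Aβ42 neoepitope antibody (565, Wallac-labelled, 0.8 ng/well) plus N-terminal antibody 26D6 (APC, 75 ng/well) in 40 mM Tris-HCl pH 7.4, 0.2% BSA. IC50s came from curve fitting.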
Broadly, the IC50 is the concentration needed to halve the response being measured. `COc1cc(Nc2ncc3c(n2)C(c2ccccc2)CCC3)ccc1-n1cnc(Cl)c1` (stereo not drawn) [Example 125, N-(4-(4-chloro-1H-imidazol-1-yl)-3-methoxyphenyl)-8-phenyl-5,6,7,8-tetrahydroquinazolin-2-amine]: the half-maximal inhibitory concentration (IC50) fell in the range of 10 to 100 nM.
Turning to `COc1cc(Nc2nc(N(C)C)c3c(n2)C(O)(c2ccccc2)CC3)ccc1-n1cnc(Cl)c1` (stereo not drawn) [Example 179, 2-(4-(4-chloro-1H-imidazol-1-yl)-3-methoxyphenylamino)-4-(dimethylamino)-7-phenyl-6,7-dihydro-5H-cyclopenta[d]pyrimidin-7-ol], the IC50 lay in the range of 10 to 100 nM.
In the case of `COc1cc(Nc2nc3c(c(N4CC(N(C)C)C4)n2)CCC3c2ccc(F)cc2)ccc1-n1cnc(Cl)c1` (stereo not drawn) [Example 34, N-(4-(4-chloro-1H-imidazol-1-yl)-3-methoxyphenyl)-4-(3-(dimethylamino)azetidin-1-yl)-7-(4-fluorophenyl)-6,7-dihydro-5H-cyclopenta[d]pyrimidin-2-amine], the IC50 was in the range of 10 to 100 nM.
For the compound `Cc1ncnn1-c1ccc(Nc2nc3c(c(N(C)C)n2)COCC3c2ccc(Cl)cc2)cc1F` (single isomer, unassigned) [Example 67A, 8-(4-chlorophenyl)-N^2-(3-fluoro-4-(5-methyl-1H-1,2,4-triazol-1-yl)phenyl)-N^4,N^4-dimethyl-7,8-dihydro-5H-pyrano[4,3-d]pyrimidine-2,4-diamine], the IC50 fell in the range of 10 to 100 nM.
With `CNc1nc(Nc2ccc(F)c(OC)c2)nc2c1CCC2c1ccccc1` (stereo not drawn) [Example 222, N2-(4-fluoro-3-methoxyphenyl)-N4-methyl-7-phenyl-6,7-dihydro-5H-cyclopenta[d]pyrimidine-2,4-diamine], the IC50 is above 1000 nM.
As for `CCN(C)c1nc(Nc2ccc(-n3cnc(Cl)c3)c(OC)c2)nc2c1CCCC2c1ccc(F)cc1` (stereo not drawn) [Example 126, N^2-(4-(4-Chloro-1H-imidazol-1-yl)-3-methoxyphenyl)-N^4-ethyl-8-(4-fluorophenyl)-N^4-methyl-5,6,7,8-tetrahydroquinazoline-2,4-diamine], the half-maximal inhibitory concentration (IC50) lay within 10 to 100 nM.
For the compound `COc1cc(Nc2nc3c(c(N4C[C@@H](C)O[C@@H](C)C4)n2)CCC3c2ccc(F)cc2)ccc1-n1cnc(Cl)c1` (stereo partly drawn) [Example 21], the IC50 fell in the range of 10 to 100 nM.
On the same count and under the same terms, with `COc1cc(Nc2nc3c(c(N4C[C@@H]5C[C@H]4CO5)n2)CCC3c2ccc(F)cc2)ccc1-n1cnc(Cl)c1` (single isomer, unassigned) [Example 18B] the figure was 10 to 100 nM.
Take `CCNc1nc(Nc2ccc(-n3cnc(C)n3)c(F)c2)nc2c1CN(CC(F)(F)F)CC2c1ccccc1` (stereo not drawn) [Example 145, N4-ethyl-N2-(3-fluoro-4-(3-methyl-1H-1,2,4-triazol-1-yl)phenyl)-8-phenyl-6-(2,2,2-trifluoroethyl)-5,6,7,8-tetrahydropyrido[4,3-d]pyrimidine-2,4-diamine]: the IC50 was 10 to 100 nM.
Same read-out and setting: with `CCNc1nc(Nc2ccc(-n3ncnc3C)c(F)c2)nc2c1COCC2c1ccc(C(F)(F)F)cc1` (racemic) [Example 119, N4-ethyl-N2-(3-fluoro-4-(5-methyl-1H-1,2,4-triazol-1-yl)phenyl)-8-(4-(trifluoromethyl)phenyl)-7,8-dihydro-5H-pyrano[4,3-d]pyrimidine-2,4-diamine, TFA] the figure was 10 to 100 nM; with `COc1cc(Nc2nc3c(c(N4CCC(C(F)(F)F)C4)n2)CCC3c2ccc(F)cc2)ccc1-n1cnc(Cl)c1` (stereo not drawn) [Example 41A, N-(4-(4-chloro-1H-imidazol-1-yl)-3-methoxyphenyl)-7-(4-fluorophenyl)-4-(3-(trifluoromethyl)pyrrolidin-1-yl)-6,7-dihydro-5H-cyclopenta[d]pyrimidin-2-amine], 10 to 100 nM.
Take `CCNc1nc(Nc2ccc(-n3cnc(Cl)c3)c(OC)c2)nc2c1CN(S(C)(=O)=O)CC2c1ccc(F)cc1` (stereo not drawn) [Example 155A, N2-(4-(4-chloro-1H-imidazol-1-yl)-3-methoxyphenyl)-N4-ethyl-8-(4-fluorophenyl)-6-(methylsulfonyl)-5,6,7,8-tetrahydropyrido[4,3-d]pyrimidine-2,4-diamine]: the half-maximal inhibitory concentration (IC50) was 1.5 to 9.9 nM.
For `CCNc1nc(Nc2ccc(-n3cnc(C)n3)c(F)c2)nc2c1CN(S(C)(=O)=O)CC2c1ccc(F)cc1` (stereo not drawn) [Example 156, N4-ethyl-N2-(3-fluoro-4-(3-methyl-1H-1,2,4-triazol-1-yl)pheny)-8-(4-fluorophenyl)-6-(methylsulfonyl)-5,6,7,8-tetrahydropyrido[4,3-d]pyrimidine-2,4-diamine], the concentration for half-maximal inhibition (IC50) lay within 1.5 to 9.9 nM.

Still in this assay, the particulars now being: 19 h, H4 APP751 SWE clone 8.20 cells, 19 h incubation; read-out: Activity Rating (Aβ42 cellular IC50), numeric value.
As for `CNc1nc(Nc2ccc(-n3cnc(C)n3)c(OC)c2)nc2c1CN(C)CC2c1ccc(F)cc1` (stereo not drawn) [Example 198B, 8-(4-fluorophenyl)-N2-(3-methoxy-4-(3-methyl-1H-1,2,4-triazol-1-yl)phenyl)-N4,6-dimethyl-5,6,7,8-tetrahydropyrido[4,3-d]pyrimidine-2,4-diamine], the IC50 was 15 nM.
As to `CNc1nc(Nc2ccc(-n3cnc(Cl)c3)c(OC)c2)nc2c1/C(=N/OC)CC2c1ccccc1` (stereo not drawn) [Example 201, (E)-2-(4-(4-chloro-1H-imidazol-1-yl)-3-methoxyphenylamino)-4-(methylamino)-7-phenyl-6,7-dihydro-5H-cyclopenta[d]pyrimidin-5-one O-methyl oxime], the IC50 is 5.3 nM.
For `CC[C@H](COC)Nc1nc(Nc2ccc(-n3cnc(Cl)c3)c(OC)c2)nc2c1CCC2c1ccc(F)cc1` (single isomer, unassigned) [Example 48B], the 50% inhibitory concentration (IC50) was found to be 130 nM.

Still in this assay, the particulars now being: H4 APP751 SWE clone 8.20 cells, 19 h incubation; class symbols; read-out: Activity Rating (Aβ42 cellular IC50).
Take `COc1cc(Nc2nc3c(c(N(C)C)n2)CCCC3c2ccc(F)cc2)ccc1-n1cnc(Cl)c1` (single isomer, unassigned) [Example 127A, N^2-(4-(4-chloro-1H-imidazol-1-yl)-3-methoxyphenyl)-8-(4-fluorophenyl)-N^4,N^4-dimethyl-5,6,7,8-tetrahydroquinazoline-2,4-diamine]: the 50% inhibitory concentration (IC50) was 1.5 to 9.9 nM.
On the same count and under the same terms, with `CNc1nc(Nc2ccc(-n3cnc(C)n3)c(F)c2)nc2c1CN(S(=O)(=O)C1CC1)CC2c1ccccc1` (stereo not drawn) [Example 141, 6-(cyclopropylsulfonyl)-N2-(3-fluoro-4-(3-methyl-1H-1,2,4-triazol-1-yl)phenyl)-N4-methyl-8-phenyl-5,6,7,8-tetrahydropyrido[4,3-d]pyrimidine-2,4-diamine] the figure was 10 to 100 nM; with `COc1cc(Nc2nc3c(c(N4CC(C)(O)C4)n2)CCC3c2ccc(F)cc2)ccc1-n1cnc(Cl)c1` (stereo not drawn) [Example 189A, 1-(2-(4-(4-chloro-1H-imidazol-1-yl)-3-methoxyphenylamino)-7-(4-fluorophenyl)-6,7-dihydro-5H-cyclopenta[d]pyrimidin-4-yl)-3-methylazetidin-3-ol], 1.5 to 9.9 nM.
Consider `COc1cc(Nc2nc3c(c(N4CC[C@@H](F)C4)n2)COC3c2ccc(F)cc2)ccc1-n1cnc(Cl)c1` (single isomer, unassigned) [Example 83A], for which the IC50 lay in the range of 1.5 to 9.9 nM.
For `COCC(Nc1nc(Nc2ccc(-n3cnc(Cl)c3)c(OC)c2)nc2c1CCC2c1ccc(F)cc1)C1CC1` (single isomer, unassigned) [Example 45D, N2-(4-(4-chloro-1H-imidazol-1-yl)-3-methoxyphenyl)-N4-(1-cyclopropyl-2-methoxyethyl)-7-(4-fluorophenyl)-6,7-dihydro-5H-cyclopenta[d]pyrimidine-2,4-diamine], the IC50 is 1.5 to 9.9 nM.
